Data taken from patent publication US11111227B2, “Rotigotine behenate, and manufacturing method and application thereof” (Shandong Luye Pharmaceutical Co., Ltd., priority 2016, dated 2021).
Blank lines part the entries; values can stand above or below the compound they belong to.

Tests used:
[1] = Test Example 3: pharmacokinetic performance of each drug injection in rats (intramuscular); assay type: in vivo
Method: Test Example 3: Pharmacokinetic Performance of Each Drug Injection in Rats
Male SD rats (provided by Shandong Luye Pharma Group Ltd.), weighing 190-280 g, 12 rats, 3 rats in each group.
Vehicle containing 1% of HPMC was prepared, and rotigotine arachidate, rotigotine behenate and rotigotine lignocerate were added to the vehicle respectively to provide 10 mg/ml of suspensions (calculated as rotigotine).
The experimental animals were randomly divided into rotigotine arachidate group (A), rotigotine behenate group (B) and rotigotine lignocerate group (C), with 3 rats in each group, The rats in Groups A, B and C were intramuscularly injected with the corresponding drug (2 ml/kg).
(§1) Blood samples were taken from the eyelids of the rats in Groups A, B, and C before the administration (0 h) and at 0.25 h, 1 h, 6 h, 1 d, 2 d, 3 d, 5 d, 7 d, 9 d, 11 d, 14 d, 16 d, 18 d, 21 d, 25 d, 28 d, 30 d, 35 d, 39 d, 42 d after administration. Each blood sample was placed into heparinized EP tube, and was immediately centrifuged (3000 rpm) for 10 min. The plasma was separated and stored at −35° C. for testing.

[2] = Test Example 1: pharmacokinetic performance of rotigotine caprylate injection in rats (intramuscular); assay type: in vivo
Method: Test Example 1: Pharmacokinetic Performance of Rotigotine Caprylate Injection in Rats
Rotigotine caprylate: prepared according to Comparative Example 1
Male SD rats (provided by Shandong Luye Pharma Group Ltd.), weighing 190-280 g, 3 rats.
Vehicle containing 1% of HPMC was prepared, and rotigotine caprylate was added to the vehicle to provide a 10 mg/ml of suspension (calculated as rotigotine). Three rats were intramuscularly injected with 2 mL/kg of the drug. Blood samples were taken from the eyelids of the rats before the administration (0 h) and at 0.25 h, 1 h, 6 h, 1 d, 2 d, 3 d, 5 d, 7 d, 9 d, 11 d, 14 d, 16 d, 18 d, 21 d, 24 d, 28 d after administration. Each blood sample was placed into heparinized EP tube, and was immediately centrifuged (3000 rpm) for 10 min. The plasma was separated and stored at −35° C. for testing.

[3] = Test Example 2: pharmacokinetic performance of each drug injection in rats (intramuscular, groups A-C); assay type: in vivo
Method: Test Example 2: Pharmacokinetic Performance of Each Drug Injection in Rats
(§2) Experimental animals: Male SD rats (provided by Shandong Luye Pharma Group Ltd.), weighing 190-280 g, 12 rats in total, 3 rats in each group.
(§3) Vehicle containing 1% of HPMC was prepared, and rotigotine oleate, rotigotine palmitate and rotigotine stearate were added to the vehicle respectively to provide 10 mg/ml of suspensions (calculated as rotigotine). Rotigotine hydrochloride was formulated as a 0.36 mg/ml injection (calculated as rotigotine) in normal saline.
(§4) The experimental animals were randomly divided into rotigotine oleate group (A), rotigotine palmitate group (B), rotigotine stearate group (C) and rotigotine hydrochloride group (D), with 3 rats in each group. The rats in Groups A, B, and C were intramuscularly injected with the corresponding drug (2 ml/kg), and the rats in group D were injected intravenously with the corresponding drug (2 ml/kg).
as §1, with “d, 24” for “d, 25”, “28” for “28 d, 30 d, 35 d, 39 d, 42”, “Each” for “Each blood”

[4] = first-pass effect of the liver; cited from earlier work
[5] = Test Example 2: rotigotine hydrochloride intravenous injection in rats (group D); assay type: in vivo; conditions: male, SD, rat, plasma, rotigotine hydrochloride intravenous 2 ml/kg of 0.36 mg/ml injection, read-out: Blood concentration in rats
Method: Rotigotine hydrochloride: purity of 99.83%
as §2, §3, §4
Blood samples were taken from the eyelids of the rats in Group D before the administration (0 h) and at 3 min, 10 min, 0.25 h, 0.5 h, 1 h, 1.5 h, 2 h, 4 h, 6 h, 8 h, and 12 h after administration. Each blood sample was placed into heparinized EP tube, and was immediately centrifuged (3000 rpm) for 10 min. The plasma was separated and stored at −35° C. for testing.

SMILES: CCCCCCCCCCCCCCCCCCCC(=O)Oc1cccc2c1CCC(N(CCC)CCc1cccs1)C2 (stereo not shown) [Rotigotine arachidate]
Maintenance of the effective blood concentration [1]: maintained only for a short period of time

SMILES: CCCCCCCC(=O)Oc1cccc2c1CC[C@H](N(CCC)CCc1cccs1)C2 [Rotigotine caprylate]
Maintenance of the effective blood concentration [2]: maintained only for a short period of time

SMILES: CCCCCCCCCCCCCCCCCCCCCCCC(=O)Oc1cccc2c1CCC(N(CCC)CCc1cccs1)C2 (stereo not shown) [Rotigotine lignocerate]
Maintenance of the effective blood concentration [1]: cannot be maintained for more than two weeks

SMILES: CCCCCCCC/C=C\CCCCCCCC(=O)Oc1cccc2c1CCC(N(CCC)CCc1cccs1)C2 (stereo not shown) [Rotigotine oleate]
Maintenance of the effective blood concentration [3]: maintained only for a short period of time

More lines, main results first:

Maintenance of the effective blood concentration [1]: more than two weeks
SMILES: CCCCCCCCCCCCCCCCCCCCCC(=O)Oc1cccc2c1CC[C@H](N(CCC)CCc1cccs1)C2 [Rotigotine behenate]

Maintenance of the effective blood concentration [3]: no more than two weeks
SMILES: CCCCCCCCCCCCCCCC(=O)Oc1cccc2c1CCC(N(CCC)CCc1cccs1)C2 (stereo not shown) [Rotigotine palmitate]

Maintenance of the effective blood concentration [3]: no more than two weeks
SMILES: CCCCCCCCCCCCCCCCCC(=O)Oc1cccc2c1CCC(N(CCC)CCc1cccs1)C2 (stereo not shown) [Rotigotine stearate]

concentration at 1 h ([5]; 0.72 mg/kg (calculated as rotigotine), 1 h): 12.1 ng/mL
concentration at 1.5 h ([5]; 0.72 mg/kg (calculated as rotigotine), 1.5 h): 7.25 ng/mL
concentration at 2 h ([5]; 0.72 mg/kg (calculated as rotigotine), 2 h): 4.71 ng/mL
concentration at 0 h ([5]; 0.72 mg/kg, 0 h (before administration)): 0 ng/mL
concentration at 0.05 h ([5]; 0.72 mg/kg, 0.05 h): 82.5 ng/mL
concentration at 0.17 h ([5]; 0.72 mg/kg, 0.17 h): 43.8 ng/mL
concentration at 0.25 h ([5]; 0.72 mg/kg, 0.25 h): 45.4 ng/mL
concentration at 0.5 h ([5]; 0.72 mg/kg, 0.5 h): 29 ng/mL
concentration at 4 h ([5]; 0.72 mg/kg, 4 h): 0.99 ng/mL
concentration at 8 h ([5]; 0.72 mg/kg, 8 h): 0.16 ng/mL
concentration at 12 h ([5]; 0.72 mg/kg, 12 h): 0.04 ng/mL
SMILES: CCCN(CCc1cccs1)[C@H]1CCc2c(O)cccc2C1 [Rotigotine]
Oral bioavailability [4]: 1%-5%
